Counter-ions that a name gives are not always drawn. Like-named read-outs stand apart in the source and are kept apart here. Each block holds one compound with its values, some of them ahead of it.
Columns and labels:
[1] = particle size (Z-average, hydrodynamic diameter) and PDI by dynamic light scattering (DLS); type: physicochemical
Excerpt: The “particle size” herein means an average particle size, and is defined as a particle size (Z-average) measured by use of a dynamic light scattering (Dynamic Light Scattering: DLS) method. The particle size thus measured is also referred to as “hydrodynamic diameter”.
The “polydispersity index (Polydispersity index: PDI)” herein is an index for evaluating the width of a particle size distribution, and is in the range from 0 to 1. A value of 0 represents an ideal suspension without any size distribution. A distribution having a PDI value of 0.1 or less is referred to as “monodispersity”, and on the other hand, a dispersion having a value between 0.1 and 0.3 is considered to have a narrow size distribution. A dispersion having a PDI of more than 0.5 is considered to be polydisperse. The polydispersity index is calculated from the value obtained by use of a dynamic light scattering (Dynamic Light Scattering: DLS) method.
Measurement by a DLS method was performed by use of a laser light scattering apparatus (Zetasizer Nano ZS manufactured by Malvern instruments Ltd.). A scanning electron microscope (SEM) image was obtained by use of Magellan 4001 manufactured by FEI Company. Powder X-ray diffraction was performed by use of SmartLab manufactured by Rigaku Corporation. FDU-1200 manufactured by EYELA was used for a freeze-dryer.

[2] = cited from earlier work; for logP: measured value described in the literature; for log P: starting organic compound, Examples 9 and 10
[3] = at 25° C.; cited from earlier work
[4] = Example 7: water injected into THF solution of compound (concentration 100 W), water dispersion
[5] = Example 6: 100 μM THF solution of compound injected into water, THF distilled off, water dispersion

Compound: c1cc2ccc3cccc4ccc(c1)c2c34 [Pyrene, pyrene]
- PDI [1, 4]: 0.13
- Particle size (nm) [1, 4]: 120 nm

- PDI [1, 5]: 0.27
- Particle size (nm) [1, 5]: 228 nm
- PDI [1, 4]: 0.02
- Particle size (nm) [1, 4]: 165 nm
Compound: CC(C)CCC[C@@H](C)[C@H]1CC[C@H]2[C@@H]3CC=C4C[C@@H](O)CC[C@]4(C)[C@H]3CC[C@]12C [Cholesterol, cholesterol]
- logP ([2]; Table 1): 9.61
- logP ([2]; Table 2): 9.61

Compound: c1ccc2cc3cc4cc5ccccc5cc4cc3cc2c1 [Pentacene, pentacene]
- PDI [1, 4]: 0.02
- Particle size (nm) [1, 4]: 116 nm

Compound: COc1ccc(CC(C)NCC(O)c2ccc(O)c(NC=O)c2)cc1 (stereo not shown) [Formoterol fumarate hydrate]
- log P [2]: 2.0
- solubility in water [3]: 170 µg/mL

Compound: Cc1c(OCC(F)(F)F)ccnc1C[S+]([O-])c1nc2ccccc2[nH]1 (stereo not shown) [Lansoprazole]
- log P [2]: 2.58
- solubility in water [3]: less than 0.1 mg/mL

- PDI [1, 4]: 0.34
- Particle size (nm) [1, 4]: 10 nm
Compound: CCCc1nc2c(C)cc(-c3nc4ccccc4n3C)cc2n1Cc1ccc(-c2ccccc2C(=O)O)cc1 [Telmisartan, telmisartan, reference compound]
- logP ([2]; Table 2): 6.48

Compound: pyrenecarboxylic acid
- PDI [1]: 0.14
- Particle size (nm) [1]: 76 nm
